Source: US20240027453A1, “METHOD FOR DETECTION AND QUANTITATIVE MONITORING OF INFECTIONS WITH HERPESVIRUSES” (The Trustees of Princeton University, priority 2020, published 2024)
Read-outs that look alike come from different tables or passages of the source.

Tested on: HCMV
Assay type: cell-based
Details: for IRS1 (P09715) protein level / TRS1 (P09695) protein level / UL13 (P16755) protein level / UL36 (P16767) protein level / UL37 (P16778) protein level / UL122 (P19893) protein level / UL123 (P13202) protein level: IE
Method: In example herpesvirus PRM assay methods shown herein, cell pellets were lysed in 2% SDS, 100 mM NaCl, 0.5 mM EDTA, 50 mM Tris, pH 8.2, and 50 μg of protein was reduced and alkylated with 25 mM TCEP and 50 mM CAM respectively for 20 min at 70° C. Proteins were then precipitated via methanol chloroform precipitation (Wessel & Flugg, Anal Biochem. 138(1):141-143, 1984), resuspended in 50 mM HEPES, pH 8.2 and digested overnight with trypsin (50:1 protein:enzyme w/w ratio). Digested peptides were desalted by SDB-RPS StageTip as previously described (Lum et al., Cell Syst., 7(6):[…], 2018; Greco et al., Methods Mol Biol 1410:39-63, 2016; Federspiel & Cristea, Methods Mol Biol., 1977:115-143, 2019).
Peptides (1.0 μg on column) were analyzed by LC-MS/MS using a Dionex Ultimate 3000 UHPLC coupled online to an EASYSpray ion source and a Q Exactive HF. Peptides were separated on an EASYSpray C18 column (75 μm×25 cm) heated to 50° C. using a linear gradient of 5% B to 32% B over 60 min at a flow rate of 250 nL/min and were ionized at 1.7 kv. Mobile phase A consisted of 0.1% FA in H2O and mobile phase B consisted of 0.1% FA, 2.9% H2O in ACN.
The PRM method was controlled by a peptide inclusion list with retention time windows of 6 min for selected precursor ions.
The PRM assay was developed and analyzed using the open-source software Skyline (Maclean et al., Bioinformatics 26(7):966-968, 2010). Summed area under the curve of 3-4 transitions per peptide was used for quantitation. Targeted peptides were normalized to host protein loading control peptides. Peptide values for each sample were scaled to the average of each peptide across all runs. The average of multiple peptides was used as the inferred value for the protein measurement when more than one peptide was quantified (Federspiel et al., PLoS Biol. 17(9):e3000437. Doi: 10.1371/journal.pbio.3000437). PRM quantitation data were graphed using the Python Seaborn and Matplotlib libraries.
MRC5 primary human fibroblasts (HFs) (ATCC CCL-171) were used as the model system for HSV-1 and HCMV infections and were cultured in complete growth medium (DMEM supplemented with 10% fetal bovine serum and 1% penicillin-streptomycin antibiotics) at 37° C. and 5% CO2. iSLK.219 cells harboring latent KSHV (a gift from Dr. Britt Glaunsinger, University of California, Berkeley) were grown in complete growth medium supplemented with 500 μg/ml hygromycin (ThermoFisher Scientific, 10687010) at 37° C. and 5% CO2. All cells were used for experiments within a maximum of 10 passages.
Wild type HSV-1 strain 17+ (a gift from Beate Sodeik, Hannover Medical School, Hannover, Germany) was propagated as previously described (Diner et al., 2015). Briefly, PO stocks were generated by electroporating pBAC-HSV-1 into U-2 OS cells. […] In a similar manner, wild type HCMV strain AD169 was produced from BAC electroporation into HFs and working stocks were propagated by infecting HFs at a low level. In both cases, cell-associated virus was released by sonication, combined with supernatant virus, then concentrated by ultracentrifugation (20,000 rpm, 2 hours, 4° C. with SW28 swinging bucket rotor [Beckman Coulter]) over a 10% ficoll (HSV-1) or 20% sorbitol (HCMV) cushion. Virus stock titers were determined by plaque assay for HSV-1 or tissue culture infectious dose (TCID50) for HCMV and infections were performed at a multiplicity of infection (MOI) of 3.
12 hours prior to virus infection or reactivation, cells were treated with either the small molecule drug or DMSO/PBS control at an equivalent volume. […] For infection cycles lasting longer than 24 hours, small molecule drugs were re-added to the cell culture medium every 24 hours. Upon collection, cells were rinsed with PBS, scraped into a microcentrifuge tube, pelleted by centrifugation, and rinsed again with PBS.

## Nc1c(S(=O)(=O)c2ccccc2)c2nc3ccccc3nc2n1-c1ccc(F)cc1 [CAY10602]
Timepoint 48, DE
  UL102 (P16827) protein level: 0.7866
  UL104 (P16735) protein level: 0.07399
  UL112/UL113 (P17151) protein level: 0.423
  UL114 (P16769) protein level: 0.7709
  UL119/UL118 (P16739) protein level: 0.3402
  UL128 (P16837) protein level: 0.06729
  US8 (P09730) protein level: 0.8905
  US9 (P09729) protein level: 0.6117
  US12 (P09721) protein level: 0.9446
  US13 (P09720) protein level: 0.9123
  US14 (P09719) protein level: 0.1589
  US18 (P69334) protein level: 0.5367
  US22 (P09722) protein level: 0.542
  US23 (P09701) protein level: 0.4283
  US24 (P09700) protein level: 0.42
  US34 (P09709) protein level: 0.4118
  gB (P06473) protein level: 0.09671
Timepoint 48
  IRS1 (P09715) protein level: 0.5813
  TRS1 (P09695) protein level: 0.446
  UL13 (P16755) protein level: 0.4405
  UL36 (P16767) protein level: 0.9117
  UL37 (P16778) protein level: 0.7557
  UL122 (P19893) protein level: 0.05121
  UL123 (P13202) protein level: 0.5672
Timepoint 48, L
  CVC1 (P16799) protein level: 0.1115
  IR11 (P16809) protein level: 0.3707
  MCP (P16729) protein level: 0.006609
  SCP (Q7M6N6) protein level: 0.004793
  TRM2 (P16792) protein level: 0.05665
  UL22A (P16845) protein level: 0.1015
  UL25 (P16761) protein level: 0.0624
  UL29 (P16764) protein level: 0.7556
  UL30 (P16765) protein level: 0.1538
  UL31 (P16848) protein level: 0.1445
  UL43 (P16781) protein level: 0.04992
  UL52 (P16793) protein level: 0.05111
  UL80 (P16753) protein level: 0.03588
  UL82 (P06726) protein level: 0.1061
  UL88 (P16731) protein level: 0.08754
  UL94 (P16800) protein level: 0.07429
  UL99 (P13200) protein level: 0.05165
  UL103 (P16734) protein level: 0.1567
  UL117 (P16770) protein level: 0.383
  gH (P12824) protein level: 0.06336
  gL (P16832) protein level: 0.05192
  gM (P16733) protein level: 0.02415
  gN (P16795) protein level: 0.1118
Timepoint 48, LL
  DUT (P16824) protein level: 0.2582
  IR12 (P16810) protein level: 0.2908
  TRM3 (P16732) protein level: 0.01695
  TRX1 (P16783) protein level: 0.006112
  TRX2 (P16728) protein level: 0.006041
  UL24 (P16760) protein level: 0.1155
  UL40 (P16780) protein level: 0.63
  UL47 (P16784) protein level: 0.02023
  UL49 (P16786) protein level: 0.187
  UL69 (P16749) protein level: 0.1615
  UL70 (P17149) protein level: 0.3937
  UL83 (P06725) protein level: 0.02048
  UL132 (P69338) protein level: 0.09662
  US15 (P09718) protein level: 0.5168
Timepoint 72, DE
  CVC2 (P16726) protein level: 0.03983
  DBP (P17147) protein level: 0.391
  HELI (P16736) protein level: 0.5709
  IR01 (P09710) protein level: 0.2588
  NEC2 (P16791) protein level: 0.11
  RIR1 (P16782) protein level: 0.1099
  TRM1 (P16724) protein level: 0.1317
  UL4 (P17146) protein level: 0.06765
  UL26 (P16762) protein level: 0.1023
  UL32 (P08318) protein level: 0.02678
  UL34 (P16812) protein level: 0.09048
  UL35 (P16766) protein level: 0.02871
  UL38 (P16779) protein level: 0.5839
  UL44 (P16790) protein level: 0.07887
  UL48 (P16785) protein level: 0.0801
  UL54 (P08546) protein level: 0.6639
  UL71 (P16823) protein level: 0.3054
  UL78 (P16751) protein level: 0.3616
  UL84 (P16727) protein level: 0.08785
  UL95 (P16801) protein level: 0.157
  UL96 (P16787) protein level: 0.2632
  UL97 (P16788) protein level: 0.1687
  UL98 (P16789) protein level: 0.2967
  UL102 (P16827) protein level: 0.7626
  UL104 (P16735) protein level: 0.1005
  UL112/UL113 (P17151) protein level: 0.3808
  UL114 (P16769) protein level: 0.6517
  UL119/UL118 (P16739) protein level: 0.4195
  UL128 (P16837) protein level: 0.04728
  US8 (P09730) protein level: 0.5794
  US9 (P09729) protein level: 0.5649
  US12 (P09721) protein level: 0.4239
  US13 (P09720) protein level: 0.5351
  US14 (P09719) protein level: 0.1559
  US18 (P69334) protein level: 0.5415
  US22 (P09722) protein level: 0.4813
  US23 (P09701) protein level: 0.3933
  US24 (P09700) protein level: 0.3114
  US34 (P09709) protein level: 0.2066
  gB (P06473) protein level: 0.1022
Timepoint 72
  IRS1 (P09715) protein level: 0.5625
  TRS1 (P09695) protein level: 0.5284
  UL13 (P16755) protein level: 0.3604
  UL36 (P16767) protein level: 0.601
  UL37 (P16778) protein level: 0.719
  UL122 (P19893) protein level: 0.05427
  UL123 (P13202) protein level: 0.4451
Timepoint 72, L
  CVC1 (P16799) protein level: 0.09678
